{"source": "patent US20240016744A1", "about": "“NALTREXONE AND RISPERIDONE COMBINATION SUSTAINED-RELEASE COMPOSITION” (SHENZHEN SCIENCARE MEDICAL INDUSTRIES CO.,, priority 2020, published 2024)", "tested_on": "methylamphetamine-induced behavioral sensitization (spontaneous activities of the mice)", "experiment": "Animal pharmacodynamic evaluation: methylamphetamine-induced behavioral sensitization, spontaneous activity", "type": "in vivo, SD mice", "conditions": "methylamphetamine 2 mg/kg i.p., no implant, from day 7; FIG. 9", "text": "All mice were bred under the same conditions. The product of the present disclosure was surgically implanted into each mouse in a model group before an experiment. Except implantation of the product of the present disclosure, other experimental conditions of a positive control group were the same as those of the model group. Mice in a negative control group were normally bred without undergoing experimental treatment. Behavioral differences among the model group, the positive control group, and the negative control group were observed during the experiment.\n36 SD mice weighing […], half male and half female, were taken. The mice were randomly divided into 3 groups: a positive control group, a negative control group, and a model group. The compound sustained-release preparation (prepared in Example 1) was implanted into the back of each mouse in the model group before administration, and a challenge experiment was carried out on the second day after surgery.\nDuring the formative period, methylamphetamine (2 mg/kg) was daily intraperitoneally injected into each mouse in the positive control group and the model group, an equal amount of normal saline was intraperitoneally injected into each mouse in the negative control group for 7 consecutive days. During the conversion period, the drug was withdrawn for 7 days without any treatment. […]", "data": [{"compound": "CN[C@@H](C)Cc1ccccc1", "note": "[methylamphetamine]", "values": [{"measurement": "activities of the mice in the positive control group (behavioral sensitization)", "result": "significantly increased (P<0.05)"}]}]}
